{
  "source": "patent US20240277767A1",
  "about": "“METHODS AND USES” (PROLEUKOCYTE AB, priority 2021, published 2024)",
  "type_in_all_cases": "cell-based, human",
  "key": {"NK cells [1]": {"test_system": "NK cells", "assay": "Degranulation (CD107a) and IFNγ expression of NK cells co-cultured with K562 cells (flow cytometry)", "conditions": "for Degranulation capacity (CD107a expression) of NK cells after co-culture with K562: with and without induction of oxidative stress (H2O2)", "method": "Lymphocytes were isolated and pre-treated when indicated, with compound and H2O2, as described above. For degranulation/measuring CD107a expression, NK cells were co-cultured with K562 tumour cells at an effector target ratio 1:1 in the presence of anti-CD107a in U-bottom plates. After 2 h, GolgiStop™ and GolgiPlug™ (BD Bioscience) were added and cells were harvested after an additional 4 h co-culture and stained for CD56 and CD3, as described above. For positive control, 25 ng/ml PMA (Sigma Aldrich) and 500 ng/mL Ionomycin (Sigma Aldrich) were added.\nLymphocytes were isolated and pre-treated when indicated, with compounds and/or H2O2, as described above. For degranulation assay, NK cells were co-cultured with K562 cells (E:T ratio 1:1) in the presence of anti-CD107a FITC antibody. After 2 h, GolgiStop™ and GolgiPlug™ (BD Bioscience) were added and cells were harvested after an additional 4 h co-culture and stained for CD56, CD3 and anti-IFNγ, as described above. As a positive control, 25 ng/ml PMA (Sigma Aldrich) and 500 ng/ml Ionomycin (Sigma Aldrich) were added."}, "ANRU TIL": {"test_system": "ANRU TIL", "assay": "ANRU TIL exposed to activated autologous monocytes: spheroid caspase activation and IFNγ release", "conditions": "for Caspase activity in spheroids co-cultured with TIL exposed to activated autologous monocytes: highest dose of AUF, vs untreated control TIL", "method": "(§1) For Nrf2 inhibition, NK cells were treated with 50 μM ML-385 (Sigma-Aldrich) in parallel. For H2O2 treatment, lymphocyte cells were washed and resuspended to 1×10^6 cells/mL in medium and exposed to indicated H2O2 (Sigma-Aldrich) concentration for 1 h at 37° C. Cells were washed with medium and then used for further experiments. For monocyte experiments, autologous NK cell-monocytes or TIL-monocytes were used. NK cells/TIL were isolated and pre-treated with 0.5 μg/mL AUF, as described above, and co-cultured with unstimulated at the ratio, 1:2 M:NK, or stimulated monocytes at the ratio, 1:1 M:NK, if not indicated otherwise. Stimulated monocytes were activated with 100 ng/ml PMA for 1 min, washed and added at indicated ratio, the number of NK cell/TIL was kept constant. As control, H2O2 was used at indicated concentration. Cells were co-cultured for 2 h and then effector cells were stained for intracellular ROS (see flow cytometry) or used as effector cells in Cr^51 release assay (E:T ratio 10:1).\nFor cytokine release assay, NK cells and TIL were cultured with indicated tumour cells at the effector target ratio 4:1 (E:T) for 24 h in U-bottom plates. IFNγ secretion was measured using human IFN-γ ELISA development kit (Mabtech) following the manufacturer's instructions.\n5000 ANRU tumour cells were seeded per well in Ultra-Low Attachment 96-well plates (Corning Costar) in culture medium containing 2% Matrigel (Corning) for 3 days. 1×10^4AUF pre-treated TIL (see above), and spheroids were co-cultured and monitored for 48 h with the IncuCyte live cell imaging system (Essen Bioscience) in the presence of CellEvent™ Caspase 3/7 Green detection agent (Invitrogen)."}, "NK cells [2]": {"test_system": "NK cells", "assay": "[Cr51]-release assay: lysis of tumour target cells by pre-treated NK cells after H2O2 exposure", "description": "Peripheral blood samples (anonymized by-products of blood donations from healthy adult donors) were purchased from Karolinska University Hospital Blood Bank. Peripheral blood mononuclear cells (PBMC) were isolated from healthy donor buffy coats using density centrifugation with Ficoll® Paque Plus (GE Healthcare). NK cells and CD14^+ monocytes were isolated from PBMCs using NK cell isolation kit or CD14^+ microbeads, respectively (both Miltenyi Biotec), following the manufacturer's instructions. For NK cell expansion, a EBV-LCL feeder cell line was used, irradiated at 100 gy and then co-cultured with NK cells, at the ratio 10:1 LCL:NK, in X-Vivo 20 (Lonza) supplemented with 10% human AB serum and 1000 U/mL IL-2 (Proleukin). From day 6 or 10, NK cells were kept at 0.5×10^6 cells/mL or 1×10^6/mL, respectively. Purity of expanded NK cell was assessed at day 10 by flow cytometry, see below.\nLymphocytes were pre-treated for 18 h with Auranofin (AUF, with the concentration 1 μg/mL for NK cells and 0.5 μg/mL for TIL, if not indicated differently), DL-Sulforaphane (SUL) or Dimethyl Fumarate (DMF) (all Sigma-Aldrich) at indicated concentrations.\nas §1\nFor cytotoxic assay, a standard 4 h [Cr^51]-release assay was used. Briefly, tumour cells were harvested and labeled with 51Cr (PerkinElmer) and used as target cells. Effector cells, NK cells and T cells, were co-cultured in 96-well V-bottom plate with indicated tumour cells at the stated effector target ratio (E:T). The supernatant was collected onto LUMA plates (Perkin-Elmer) and radioactivity/tumour cell lysis was detected by MicroBeta2 (Perkin Elmer). Target cell killing measured by % specific lysis and calculated using the formula: ((experimental release-spontaneous release)/(maximum release-spontaneous release))*100.\nLymphocytes were pre-treated for 18 h with Auranofin (AUF, with the concentration 1 μg/mL for NK cells and 0.5 μg/mL for TIL. As AUF was reconstituted in DMSO, control NK cells were pre-treated with DMSO with an equivalent volume to the highest compound concentration. For N-acetylcysteine (NAC, Invitrogen) treatment, DMSO pre-treated cells were incubated for 1 h with 5 or 10 mM NAC prior to H2O2 treatment. For H2O2 treatment, lymphocytes were washed and resuspended to 1×10^6 cells/mL in RPMI containing the indicated H2O2 (Sigma-Aldrich) concentration for 1 h at 37° C. 5% CO2. Cells were washed with medium and then used for further experiments."}, "[3]": {"test_system": "Nrf2 target genes (NQO1, HMOX1, TXNRD1, Keap1)", "assay": "qPCR of classical Nrf2 target genes in NK cells", "method": "(§2) Lymphocytes were pre-treated with AUF, SUL or DMF as described above. RNA was isolated using TRIzol™ Plus RNA Purification Kit (Invitrogen). cDNA was generated using the iScript™ cDNA Synthesis Kit (Bio-Rad) and qPCR was done using iTaq™ Universal SYBR® Green Supermix (Bio-Rad) in the CFX96 Touch Real-Time PCR Detection System (Bio-Rad). Fold change expression from untreated cells was calculated using the 2^-ΔΔCt formula with b-actin as reference gene. Evaluated genes were NAD(P)H Quinone Dehydrogenase 1 (NQO1), Kelch Like ECH Associated Protein 1 (Keap1), Heme Oxygenase 1 (HMOX1) and Thioredoxin Reductase 1 (TXNRD1)."}, "[4]": {"test_system": "Nrf2 target genes (NQO1, HMOX1, TXNRD1, Keap1)", "assay": "qPCR of classical Nrf2 target genes in TIL", "method": "as §2"}},
  "note": "“Also recorded” adds a separate entry of the source.",
  "data": [
    {"compound": "CC(=O)OC[C@H]1O[C@@H]([S-])[C@H](OC(C)=O)[C@@H](OC(C)=O)[C@@H]1OC(C)=O.CCP(CC)CC.[Au+]", "note": "[AUF, Auranofin]", "values": [
      {"measurement": "Difference in protective effect on different NK cell functions (CD107a degranulation vs IFNγ expression)", "setting": "NK cells [1]; during oxidative stress, 6 h co-culture with K562", "result": "no difference"},
      {"measurement": "Degranulation capacity (CD107a expression) of NK cells after co-culture with K562", "setting": "NK cells [1]", "result": "protective effect was observed both in the presence or absence of H2O2"},
      {"measurement": "Degranulation capacity (CD107a expression) of NK cells after co-culture with K562", "setting": "NK cells [1]; listed as Auranofin", "result": "increased degranulation capacity"},
      {"measurement": "Cytokine release (IFNγ) by TIL impaired by monocyte derived ROS", "setting": "ANRU TIL; 2D grown ANRU tumour cells", "result": "partially be rescued"},
      {"measurement": "Caspase activity in spheroids co-cultured with TIL exposed to activated autologous monocytes", "setting": "ANRU TIL", "result": "increased caspase activity"},
      {"measurement": "Caspase activity in spheroids co-cultured with TIL exposed to activated autologous monocytes", "setting": "ANRU TIL; listed as auranofin", "result": "increased elimination of spheroid grown tumour cells"},
      {"measurement": "Lysis of K562 target cells by pre-treated NK cells after H2O2 exposure", "setting": "NK cells [2]; 18 h pre-treatment, H2O2 1 h up to 250 μM, E:T 9:1, vs control NK cells", "result": "counteracted; also recorded: strong protective effect against ROS"},
      {"measurement": "Effector functions of NK cells (K562 lysis) vs controls", "setting": "NK cells [2]; 72 h after AUF removal, E:T 3:1", "result": "no differences"},
      {"measurement": "Killing of KASUMI-1 cells by pre-treated NK cells", "setting": "NK cells [2]; AML cell line KASUMI-1, H2O2, E:T 9:1", "result": "significantly increased killing"},
      {"measurement": "Killing of THP-1 cells by pre-treated NK cells", "setting": "NK cells [2]; AML cell line THP-1, H2O2, E:T 9:1", "result": "significantly increased killing"},
      {"measurement": "Time after start of pre-treatment with most pronounced protection of functional cytotoxicity capacity", "setting": "NK cells [2]; NK cells, K562 lysis, H2O2, E:T 9:1", "result": "around 18 h"},
      {"measurement": "Lysis of K562 by AUF pre-treated NK cells despite addition of ML385", "setting": "NK cells [2]; compared to untreated controls", "result": "lysis was increased"},
      {"measurement": "Suppressive effect of H2O2 on lymphocyte function (killing, degranulation, IFNγ)", "setting": "NK cells [2]; expanded NK cells and patient derived TIL, pre-treatment", "result": "counteracts the suppressive effect of H2O2 on lymphocyte function"},
      {"measurement": "Duration of improved NK cell and TIL tolerance towards oxidative stress", "setting": "NK cells [2]; post pre-treatment", "result": "up to two to three days"},
      {"measurement": "Dependence of the protective effect on Nrf2 activation", "setting": "NK cells [2]; qPCR of Nrf2 target genes and K562 lysis with/without Nrf2 inhibitor ML385", "result": "dependent on Nrf2 activation"},
      {"measurement": "Effector functions of NK cells (K562 lysis)", "setting": "NK cells [2]; up to 48 h after AUF removal, E:T 3:1", "result": "significantly improved effector functions"},
      {"measurement": "Effector function of NK cells and TIL after H2O2 treatment", "setting": "NK cells [2]; up to 72 h after compound removal", "result": "increased effector function"},
      {"measurement": "Time of HMOX1 expression peak in NK cells", "setting": "[3]", "result": 6, "unit": "h"},
      {"measurement": "HMOX1 expression in NK cells (fold change vs untreated)", "setting": "[3]; already at 1 h", "result": "pronounced upregulation"},
      {"measurement": "Expression of the other Nrf2 target genes in NK cells (fold change vs untreated)", "setting": "[3]; kinetic", "result": "more gradually increased over time"},
      {"measurement": "Time of HMOX1 expression peak in TIL", "setting": "[4]", "result": 3, "unit": "h"},
      {"measurement": "Activation of Nrf2 target genes in TIL", "setting": "[4]; TIL from three melanoma patients KADA, ANRU, BEHA", "result": "robust activation"}
    ]}
  ]
}
